US20090069319A1, “IMIDAZOPYRIDINE ANALOGS AND THEIR USE AS AGONISTS OF THE WNT-BETA-CATENIN CELLULAR MESSAGING SYSTEM” (Wyeth, priority 2007, published 2009)

Columns and labels:
[1] = Functional Dkk1-LRP5-TCF-Luciferase Assay in U2OS Cells (table columns: A=MAX FOLD Induction/DMSO CONTROL; B=fold induction @ 2.0 uM; C=fold induction @ 20.0 uM); assay type: cell-based, Human; conditions: Homo sapiens; for EC50: U2OS cells, TCF-luciferase reporter; for fold induction at 2 µM / fold induction at 20 µM: U2OS; for fold induction at 2 µM: 2.0 uM compound; for fold induction at 20 µM: 20.0 uM compound
Method in brief: (§1)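 U2OS cells co-transfected with 16×TCF-TK-firefly luciferase, TK-Renilla control, Wnt3a and Dkk1, then frozen; thawed cells (~5,000/well, ~5% FBS, phenol red-free RPMI) incubated ~20 h at 37° C. with compound (0.25% DMSO). Firefly luminescence (Bright-Glo) normalized to DMSO mean as fold induction.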

[2] = test system: canonical Wnt-β-catenin cellular messaging system (16xTCF-TK-FireFly-Luci reporter, Wnt3a and Dkk1 co-transfected U2OS cells); assay: as above; assay type: cell-based, Human; conditions: maximum fold induction over DMSO control
Method in brief: as §1

EC50 [1] [nM] | A = MAX FOLD Induction/DMSO CONTROL [2] | SMILES | fold induction at 2 µM [1] | fold induction at 20 µM [1]
737 | 1.860 | c1ccc2cc(-c3cnc4c(c3)nc(-c3ccc5c(c3)OCO5)n4C3CCNCC3)ccc2c1 [2-(1,3-benzodioxol-5-yl)-6-(2-naphthyl)-3-piperidin-4-yl-3H-imidazo[4,5-b]pyridine] | – | –
– | 2.720 | Cn1ccnc1-c1nc2cc(-c3ccc4ccccc4c3)cnc2n1C1CCNCC1 [2-(1-methyl-1H-imidazol-2-yl)-6-(2-naphthyl)-3-piperidin-4-yl-3H-imidazo[4,5-b]pyridine] | – | –
– | 2.470 | Cn1cccc1-c1nc2cc(-c3ccc4ccccc4c3)cnc2n1C1CCNCC1 [2-(1-methyl-1H-pyrrol-2-yl)-6-(2-naphthyl)-3-piperidin-4-yl-3H-imidazo[4,5-b]pyridine] | – | –
– | 1.460 | c1ccc2cc(-c3cnc4c(c3)nc(-c3ccc5c(c3)OCCO5)n4C3CCNCC3)ccc2c1 [2-(2,3-dihydro-1,4-benzodioxin-6-yl)-6-(2-naphthyl)-3-piperidin-4-yl-3H-imidazo[4,5-b]pyridine] | – | –
– | 2.030 | COc1ncccc1-c1nc2cc(-c3ccc4ccccc4c3)cnc2n1C1CCNCC1 [2-(2-methoxypyridin-3-yl)-6-(2-naphthyl)-3-piperidin-4-yl-3H-imidazo[4,5-b]pyridine] | 2.06 | 0.02
– | 1.160 | Clc1ccc(-c2nc3cc(-c4ccc5ccccc5c4)cnc3n2C2CCNCC2)cc1 [2-(4-chlorophenyl)-6-(2-naphthyl)-3-piperidin-4-yl-3H-imidazo[4,5-b]pyridine] | – | –
– | 1.370 | Fc1ccc(-c2nc3c(-c4ccc5ccccc5c4)ccnc3n2C2CCNCC2)cc1 [2-(4-fluorophenyl)-7-(2-naphthyl)-3-piperidin-4-yl-3H-imidazo[4,5-b]pyridine] | 2.07 | –
– | 1.350 | COc1ccc(-c2nc3cc(-c4ccc5ccccc5c4)cnc3n2C2CCNCC2)cc1 [2-(4-methoxyphenyl)-6-(2-naphthyl)-3-piperidin-4-yl-3H-imidazo[4,5-b]pyridine] | – | –
– | 1.320 | COc1ccc(-c2nc3c(-c4ccc5ccccc5c4)ccnc3n2C2CCNCC2)cc1 [2-(4-methoxyphenyl)-7-(2-naphthyl)-3-piperidin-4-yl-3H-imidazo[4,5-b]pyridine] | 1.98 | –
– | 1.870 | Cc1nc[nH]c1-c1nc2cc(-c3ccc4ccccc4c3)cnc2n1C1CCNCC1 [2-(4-methyl-1H-imidazol-5-yl)-6-(2-naphthyl)-3-piperidin-4-yl-3H-imidazo[4,5-b]pyridine] | – | –
– | 1.380 | Oc1ccccc1-c1nc2cc(-c3ccc4ccccc4c3)cnc2n1C1CCNCC1 [2-[6-(2-naphthyl)-3-piperidin-4-yl-3H-imidazo[4,5-b]pyridin-2-yl]phenol] | – | –
486 | 2.110 | COc1cc(-c2nc3cc(-c4ccc5ccccc5c4)cnc3n2C2CCNCC2)ccc1O [2-methoxy-4-[6-(2-naphthyl)-3-piperidin-4-yl-3H-imidazo[4,5-b]pyridin-2-yl]phenol] | – | –
– | 1.430 | Oc1cccc(-c2nc3cc(-c4ccc5ccccc5c4)cnc3n2C2CCNCC2)c1O [3-[6-(2-naphthyl)-3-piperidin-4-yl-3H-imidazo[4,5-b]pyridin-2-yl]benzene-1,2-diol] | – | –
– | 1.710 | Oc1ccc(-c2nc3cc(-c4ccc5ccccc5c4)cnc3n2C2CCNCC2)cc1 [4-[6-(2-naphthyl)-3-piperidin-4-yl-3H-imidazo[4,5-b]pyridin-2-yl]phenol] | – | –
– | 1.290 | C=Cc1cccc(-c2nc3cc(-c4ccc5ccccc5c4)cnc3n2C2CCNCC2)c1 [6-(2-naphthyl)-3-piperidin-4-yl-2-(3-vinylphenyl)-3H-imidazo[4,5-b]pyridine] | – | –
– | 1.360 | FC(F)(F)c1ccccc1-c1nc2cc(-c3ccc4ccccc4c3)cnc2n1C1CCNCC1 [6-(2-naphthyl)-3-piperidin-4-yl-2-[2-(trifluoromethyl)phenyl]-3H-imidazo[4,5-b]pyridine] | – | –
– | – | FC(F)(F)c1cccc(Oc2cccc(-c3nc4c(-c5ccc6ccccc6c5)ccnc4n3C3CCNCC3)c2)c1 [7-(2-naphthyl)-3-piperidin-4-yl-2-{3-[3-(trifluoromethyl)phenoxy]phenyl}-3H-imidazo[4,5-b]pyridine] | 1.29 | –
– | – | c1ccc2cc(-c3cnc4c(c3)nc(-c3cccc5cccnc35)n4C3CCNCC3)ccc2c1 [8-[6-(2-naphthyl)-3-piperidin-4-yl-3H-imidazo[4,5-b]pyridin-2-yl]quinoline] | 1.61 | –
– | – | c1ccc2cc(-c3ccnc4c3nc(-c3cccc5cccnc35)n4C3CCNCC3)ccc2c1 [8-[7-(2-naphthyl)-3-piperidin-4-yl-3H-imidazo[4,5-b]pyridin-2-yl]quinoline] | – | 1.01
– | – | CN(C)C(=O)N1CCC(n2c(=O)n(C)c3c(-c4ccc5ccccc5c4)ccnc32)CC1 [N,N-dimethyl-4-[1-methyl-7-(2-naphthyl)-2-oxo-1,2-dihydro-3H-imidazo[4,5-b]pyridin-3-yl]piperidine-1-carboxamide] | 1.19 | 0.35
– | – | CN(C)S(=O)(=O)N1CCC(n2cnc3c(-c4ccc5ccccc5c4)ccnc32)CC1 [N,N-dimethyl-4-[7-(2-naphthyl)-3H-imidazo[4,5-b]pyridin-3-yl]piperidine-1-sulfonamide] | 1.19 | 1.46
– | – | O=C(NC1CCCCC1)N1CCC(n2cnc3c(-c4ccc5ccccc5c4)ccnc32)CC1 [N-cyclohexyl-4-[7-(2-naphthyl)-3H-imidazo[4,5-b]pyridin-3-yl]piperidine-1-carboxamide] | 0.97 | 0.03
– | – | CCNC(=O)N1CCC(n2cnc3c(-c4ccc5ccccc5c4)ccnc32)CC1 [N-ethyl-4-[7-(2-naphthyl)-3H-imidazo[4,5-b]pyridin-3-yl]piperidine-1-carboxamide] | 1.52 | 1.29
– | – | CC(C)NC(=O)N1CCC(n2c(=O)n(C)c3c(-c4ccc5ccccc5c4)ccnc32)CC1 [N-isopropyl-4-[1-methyl-7-(2-naphthyl)-2-oxo-1,2-dihydro-3H-imidazo[4,5-b]pyridin-3-yl]piperidine-1-carboxamide] | 1.07 | 0.26
– | – | CC(C)NC(=O)N1CCC(n2c(=O)[nH]c3c(-c4ccc5ccccc5c4)ccnc32)CC1 [N-isopropyl-4-[7-(2-naphthyl)-2-oxo-1,2-dihydro-3H-imidazo[4,5-b]pyridin-3-yl]piperidine-1-carboxamide] | 1.42 | 1.1
– | – | CC(C)NC(=O)N1CCC(n2cnc3c(-c4ccc5ccccc5c4)ccnc32)CC1 [N-isopropyl-4-[7-(2-naphthyl)-3H-imidazo[4,5-b]pyridin-3-yl]piperidine-1-carboxamide] | 1.2 | 0.84
– | 1.460 | CC(=O)Nc1ccc(-c2nc3cc(-c4ccc5ccccc5c4)cnc3n2C2CCNCC2)cc1 [N-{4-[6-(2-naphthyl)-3-piperidin-4-yl-3H-imidazo[4,5-b]pyridin-2-yl]phenyl}acetamide] | – | –
– | – | COC(=O)N1CCC(n2cnc3c(-c4ccc5ccccc5c4)ccnc32)CC1 [methyl 4-[7-(2-naphthyl)-3H-imidazo[4,5-b]pyridin-3-yl]piperidine-1-carboxylate] | 1.08 | 1.02
